Data set [1] in a line: Microsomal stability assay, mouse liver microsomes. It is filed as in vitro ADME. Conditions: for Mics (m) comp remaining 60 min: 10 μM; for microsomal CLint at 10 µM: pooled liver microsomes, pH 7.4, read-out: Mics (m) CLint.
A short description of data set [2]: in vitro. Conditions: mouse, plasma.
A short description of data set [3]: In vivo pharmacokinetic study, intravenous. Conditions: plasma, 1 mg/kg; for half-life: footnote: t1/2 stability in plasma, text: half-life in mouse PK. Further details: species or system male CD-1 mice. The essentials:
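Single intravenous dose in male CD-1 mice (n=3, 9 weeks, 29.2–33.7 g). Plasma levels measured by LC-MS/MS at 5, 15, 30, 60, 120, 240 and 480 min.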

Another data set has as its system HL-60. In words: In vitro cytotoxic activity. It is filed as cell-based. Conditions: Homo sapiens. Here is the method: (§1) All the compounds were also tested for their in vitro cytotoxic activity on a small panel of four cancer cell lines (CCRF-CEM, HepG2, HeLa S3, HL-60) and nonmalignant human dermal fibroblasts (NHDF).
A further data set has as its system CCRF-CEM. Nature of the data set: In vitro cytotoxic activity. It is filed as cell-based. Conditions: Homo sapiens. The method, then: as §1
In another data set the test system is HepG2. In words: In vitro cytotoxic activity. Conditions: Homo sapiens. Format: cell-based. Here is the method: as §1
In a further data set the test system is HeLa S3. Nature of the data set: In vitro cytotoxic activity. Conditions: Homo sapiens. Format: cell-based. The method, then: as §1
Data set [4] concerns nonmalignant human dermal fibroblasts (NHDF). Nature of the data set: In vitro cytotoxic activity. It is filed as cell-based. The method, then:
as §1

The nature of data set [5]: in vitro. Conditions: human, plasma.
Data set [6] can be described thus: Plasma protein binding, equilibrium dialysis, human plasma. Conditions: undiluted plasma. Format: in vitro ADME.
The target of data set [7] is T1, recombinant human CD73 (hCD73) (Homo sapiens, UniProt P21589).
T1 sequence (P21589 27-574): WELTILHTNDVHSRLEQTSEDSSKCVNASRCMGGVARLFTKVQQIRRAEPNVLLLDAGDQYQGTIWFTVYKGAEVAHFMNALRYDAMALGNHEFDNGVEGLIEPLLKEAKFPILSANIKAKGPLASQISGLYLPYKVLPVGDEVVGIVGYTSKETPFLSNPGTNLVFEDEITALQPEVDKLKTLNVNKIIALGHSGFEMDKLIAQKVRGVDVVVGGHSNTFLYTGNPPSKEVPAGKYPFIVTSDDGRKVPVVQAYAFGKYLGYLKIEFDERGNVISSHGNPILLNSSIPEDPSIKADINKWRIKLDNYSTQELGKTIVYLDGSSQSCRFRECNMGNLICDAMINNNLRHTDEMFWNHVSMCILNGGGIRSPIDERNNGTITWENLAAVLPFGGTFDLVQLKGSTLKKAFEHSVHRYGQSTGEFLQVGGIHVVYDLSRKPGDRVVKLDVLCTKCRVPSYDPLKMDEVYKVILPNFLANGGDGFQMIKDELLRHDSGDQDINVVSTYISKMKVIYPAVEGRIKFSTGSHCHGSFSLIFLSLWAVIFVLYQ
Nature of the data set: CD73 activity assay on recombinant human CD73. Format: biochemical. Conditions: ΔGexp = RT ln Ki.

A short description of data set [8]: Microsomal stability assay, human liver microsomes. Format: in vitro ADME. Conditions: for Mics (hu) comp remaining 60 min: 10 μM; for microsomal CLint at 10 µM: pooled liver microsomes, pH 7.4, read-out: Mics (hu) CLint.
A short description of data set [9]: Kinetic solubility in PBS. Conditions: phosphate-buffered saline, pH 7.4, aqueous buffer, kinetic from dmso stock. It is filed as physicochemical. The essentials:
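DMSO stocks diluted into PBS pH 7.4 to 100 μM and shaken 2 h at room temperature in duplicate, then filtered by centrifugation. Filtrates diluted 1:99 in 50% acetonitrile. Quantified by Echo-MS against calibration standards spanning 0.05–4 μM.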

The nature of data set [10]: Plasma protein binding, mouse plasma. Format: in vitro ADME. Conditions: mouse, plasma.
Where [11] appears, read: male, CD-1, mouse, iv, intravenous.
The mark [12] stands for this setting: mouse, male CD-1 mice, intravenous, single dose, read-out: Cl (obs), observed clearance.
Setting [13] is: human plasma protein binding, read-out: PPB (hu) (converted).
[14] abbreviates: Tables 2 and 4, mouse plasma, read-out: fup, fraction unbound in mouse plasma.
[15] abbreviates: mouse plasma protein binding, read-out: PPB (m) (converted).

In brackets after ≈: the same amount, converted by molar mass. Where two headings read alike, the source gives them in different places. Bounds are passed on as bounds.

Consider `O=P(O)(O)CP(=O)(O)OC[C@H]1O[C@@H](n2ccc3c(-c4ccco4)nc(Cl)nc32)[C@H](O)[C@@H]1O` [7B.1, [(5-{[2-Chloro-4-(furan-2-yl)-7H-pyrrolo[2,3-d]pyrimidin-7-yl]-β-D-ribofuranosyl}oxy)phosphonomethyl]phosphonic Acid], for which, in data set [1], the “Mics (m) comp remaining 60 min” value was 106%. The microsomal CLint at 10 µM in [1] was < 1 µL/min/mg; in [8], 2 µL/min/mg. For the same molecule, the half-life at 10 µM in the data set “in vitro [2]” and in the data set “in vitro [5]” was > 120 min throughout. The same molecule gave a half-life in [3] (setting [11]) of 6.3 min. For the same molecule, the clearance in data set [3] (setting [12]) is 8.3 mL/min/kg. The IC50 in the data set with HL-60 was 5.6 µM; with CCRF-CEM, 8.8 µM; in the data set on HepG2, > 10 µM; in the data set on HeLa S3 it was > 10 µM; in data set [4], > 10 µM. Besides, the fraction unbound at 4 h, 100 µM was 0.098 in data set [6] (setting [13]), 0.92 in data set [10] (setting [14]) and 0.818 in [10] (setting [15]). In data set [7], the “dG_exp, experimental binding free energy” value is reported as “–15.2 kcal/mol”. Moreover, the “Mics (hu) comp remaining 60 min” value in [8] worked out at 98%. Also, the solubility at 2 h in data set [9] is > 100 µM.

Consider `Nc1nc(-c2cccc3ccccc23)c2ccn([C@@H]3O[C@H](COP(=O)(O)CP(=O)(O)O)[C@@H](O)[C@H]3O)c2n1` [11C.6], for which the “Mics (m) comp remaining 60 min” value in data set [1] is reported as 102%. Further, the microsomal CLint at 10 µM in data set [1] is < 1 µL/min/mg; in data set [8], 3 µL/min/mg. Besides, the half-life at 10 µM in “in vitro [2]” and in “in vitro [5]” was > 120 min each time. The molecule also yielded a half-life in data set [3] (setting [11]) of 167 min. In addition, in [3] (setting [12]), the clearance was 2.3 mL/min/kg. Moreover, the IC50 (in the data set with HL-60; with CCRF-CEM; in the data set with HepG2; in the data set with HeLa S3; in data set [4]) was > 10 µM in each case. In addition, the fraction unbound at 4 h, 100 µM was 0.067 in [6] (setting [13]), 0.56 in data set [10] (setting [14]) and 0.564 in [10] (setting [15]). The “dG_exp, experimental binding free energy” value in [7] was “–13.9 kcal/mol”. Besides, the “Mics (hu) comp remaining 60 min” value in data set [8] came to 92%. Further, the solubility at 2 h in data set [9] is > 100 µM.

Take `O=P(O)(O)CP(=O)(O)OC[C@H]1O[C@@H](n2ccc3c(-c4cc5ccccc5[nH]4)nc(Cl)nc32)[C@H](O)[C@@H]1O` [7B.24]: the “Mics (m) comp remaining 60 min” value in data set [1] was 72%. The microsomal CLint at 10 µM in data set [1] is 12 µL/min/mg; in data set [8], < 1 µL/min/mg. The half-life at 10 µM in the data set “in vitro [2]” and in “in vitro [5]” was > 120 min each time. The molecule also yielded a half-life in data set [3] (setting [11]) of 37 min. The clearance in data set [3] (setting [12]) was determined as 12 mL/min/kg. Further, the IC50 (in the data set on HL-60; in the data set on CCRF-CEM; in the data set on HepG2; in the data set with HeLa S3; in data set [4]) was > 10 µM throughout. Also, the fraction unbound at 4 h, 100 µM was 0.012 in [6] (setting [13]), 0.21 in data set [10] (setting [14]) and 0.201 in data set [10] (setting [15]). In addition, the “dG_exp, experimental binding free energy” value in data set [7] is recorded as “–15.7 kcal/mol”. For the same molecule, the “Mics (hu) comp remaining 60 min” value in [8] was 111%. In addition, in [9], the solubility at 2 h was > 100 µM.

In the case of `O=P(O)(O)CP(=O)(O)OC[C@H]1O[C@@H](n2ccc3c(-c4ccc5cc(F)ccc5c4)nc(Cl)nc32)[C@H](O)[C@@H]1O` [7B.25], in data set [1], the “Mics (m) comp remaining 60 min” value came to 109%. For the same molecule, the microsomal CLint at 10 µM in data set [1] and in [8] was < 2 µL/min/mg throughout. For the same molecule, the half-life at 10 µM in the data set “in vitro [2]” and in the data set “in vitro [5]” was > 120 min each time. In [3] (setting [11]), the half-life was found to be 17 min. Moreover, the clearance in [3] (setting [12]) came out at 5.9 mL/min/kg. In addition, the IC50 (with HL-60; with CCRF-CEM; with HepG2; in the data set on HeLa S3; in data set [4]) was > 10 µM throughout. Moreover, the figures for the fraction unbound at 4 h, 100 µM in [6] (setting [13]), in data set [10] (setting [14]) and in [10] (setting [15]) were ≤ 0.01, 0.08 and 0.079, respectively. Moreover, in data set [7], the “dG_exp, experimental binding free energy” value was “–15.4 kcal/mol”. For the same molecule, in data set [8], the “Mics (hu) comp remaining 60 min” value came to 108%. The solubility at 2 h in data set [9] is > 100 µM.

Take `O=P(O)(O)CP(=O)(O)OC[C@H]1O[C@@H](n2ccc3c(-c4cccc5ccccc45)nc(F)nc32)[C@H](O)[C@@H]1O` [14D.6]: the “Mics (m) comp remaining 60 min” value in [1] is reported as 111%. Besides, the microsomal CLint at 10 µM in [1] and in data set [8] was < 1 µL/min/mg each time. The half-life at 10 µM in “in vitro [2]” and in “in vitro [5]” was > 120 min in each case. Further, the half-life in [3] (setting [11]) worked out at 138 min. The clearance in data set [3] (setting [12]) came to 1.3 mL/min/kg. Further, the IC50 (with HL-60; with CCRF-CEM; with HepG2; in the data set on HeLa S3; in data set [4]) was > 10 µM throughout. For the same molecule, the values for the fraction unbound at 4 h, 100 µM in data set [6] (setting [13]) and in data set [10] (setting [14]) were 0.033 and 0.42, respectively. Further, the “dG_exp, experimental binding free energy” value in [7] is given as “–14.4 kcal/mol”. For the same molecule, the “Mics (hu) comp remaining 60 min” value in data set [8] is 100%. Besides, the concentration in solution in [9] (solubility at 2 h) came to 89 µM (≈ 49.3 µg/mL).

Consider `O=P(O)(O)CP(=O)(O)OC[C@H]1O[C@@H](n2ccc3c(-c4cccc5c4CCCC5)ncnc32)[C@H](O)[C@@H]1O` [4A.12], for which the “Mics (m) comp remaining 60 min” value in data set [1] is on record as 100%. Besides, the results for the microsomal CLint at 10 µM in [1] and in data set [8] were < 1 µL/min/mg and 1 µL/min/mg, respectively. Besides, the half-life at 10 µM in the data set “in vitro [2]” and in “in vitro [5]” was > 120 min each time. The molecule also registered a half-life in data set [3] (setting [11]) of 130 min. Besides, the clearance in data set [3] (male, CD-1, mouse, iv, in vivo PK in mice, unit inferred, read-out: clearance) came out at 2.1 mL/min/kg. In addition, the IC50 (in the data set with HL-60; in the data set with CCRF-CEM; with HepG2; in the data set with HeLa S3; in data set [4]) was > 10 µM in each case. Moreover, the fraction unbound at 4 h, 100 µM in [6] (Tables 1 and 3, human plasma as printed in footnote, read-out: fup, fraction unbound in human plasma) is 0.38; in data set [6] (setting [13]) it was 0.073; in data set [10] (setting [15]), 0.381. Further, the “dG_exp, experimental binding free energy” value in data set [7] was “–15.1 kcal/mol”. Further, the “Mics (hu) comp remaining 60 min” value in [8] is on record as 96%. Besides, the solubility at 2 h in data set [9] worked out at 94 µM (≈ 50.7 µg/mL).

In the case of `O=P(O)(O)CP(=O)(O)OC[C@H]1O[C@@H](n2ccc3c(-c4cccc5c4CCCC5)nc(F)nc32)[C@H](O)[C@@H]1O` [14D.12], the “Mics (m) comp remaining 60 min” value in data set [1] stood at 116%. In addition, the microsomal CLint at 10 µM in data set [1] and in data set [8] was < 1 µL/min/mg in each case. Also, the half-life at 10 µM in the data set “in vitro [2]” and in “in vitro [5]” was > 120 min each time. Also, the half-life in data set [3] (setting [11]) was 135 min. Moreover, the clearance in [3] (setting [12]) stood at 1.4 mL/min/kg. Further, the IC50 (with HL-60; with CCRF-CEM; with HepG2; in the data set with HeLa S3; in data set [4]) was > 10 µM each time. For the same molecule, the figures for the fraction unbound at 4 h, 100 µM in data set [6] (setting [13]), in data set [10] (setting [14]) and in data set [10] (setting [15]) were 0.023, 0.23 and 0.235, respectively. In [7], the “dG_exp, experimental binding free energy” value is “–15.1 kcal/mol”. Also, the “Mics (hu) comp remaining 60 min” value in data set [8] was found to be 99%. Also, the concentration in solution in data set [9] (solubility at 2 h) came to 84 µM (≈ 46.8 µg/mL).

These data come from PMC12797170, “Potent Competitive Inhibitors of Ecto-5′-nucleotidase (CD73) based on 6‑(Het)aryl-7-deazapurine Ribonucleoside 5′‑O‑Bisphosphonates” (ACS Pharmacology & Translational Science, 2025).
